Source: patent publication US20260248918A1, “COMPOSITIONS AND METHODS OF SUPPRESSING AVERSIVENESS OF PHARMACEUTICALS AND INGESTIBLE MATERIALS” (Monell Chemical Senses Center, priority 2019, published 2026)
Where a name gives a salt, the structure may show the parent alone.

What was measured:
[1] = molecular target: T1, TAS2R14 (Homo sapiens, UniProt Q9NYV8); test: Response profile of TAS2Rs to target compounds: TAS2R14; assay type: cell-based; settings: FIG. 4: Praziquantel 0.75 mM, L-praziquantel 0.1 mM, Dihydroartemisinin 2 mM (not fully dissolved), Piperaquine 0.5 mM, TAF 1 mM, Ritonavir 1 mM, Zinc sulfate 20 mM
T1 sequence (Q9NYV8 1-317): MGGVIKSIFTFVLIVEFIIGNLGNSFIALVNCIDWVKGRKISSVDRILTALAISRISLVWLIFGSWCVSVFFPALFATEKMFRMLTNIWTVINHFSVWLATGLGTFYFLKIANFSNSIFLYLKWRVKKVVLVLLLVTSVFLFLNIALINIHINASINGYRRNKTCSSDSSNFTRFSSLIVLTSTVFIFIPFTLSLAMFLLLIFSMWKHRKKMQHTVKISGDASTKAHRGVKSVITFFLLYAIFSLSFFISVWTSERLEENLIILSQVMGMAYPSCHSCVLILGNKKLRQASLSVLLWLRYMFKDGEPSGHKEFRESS
Procedure: (§1) FIG. 4 is a table showing response profiles of TAS2Rs to indicated target compounds at indicated concentrations. Praziquantel: 0.75 mM, L-praziquantel: 0.1 mM, Zinc sulfate: 20 mM, Dihydroartemisinin: 2 mM (not fully dissolved), Piperaquine, 0.5 mM, Tenofovir (TAF), 1 mM and Ritonavir, 1 mM. Symbols: + means that there was activation; a − negative sign means that there was no significant activation of the receptor; a “larger + sign” means that receptor(s) were most sensitive to the compound (activated at lower concentrations.
(§2) Using a primary hTBEC platform, a high throughput screening (HTS) was conducted with more than 2,000 small molecular weight purified phytochemicals and botanical extracts. The screen identified 40 antagonists that suppressed taste cell activation by target APIs. […] TAS2R1 is responsive to piperaquine and tenofovir. (See FIG. 4)

[2] = molecular target: T2, TAS2R39 (Homo sapiens, UniProt P59534); settings: reported in Roland et al. 2014, data not shown; cited from earlier work
T2 sequence (P59534 1-338): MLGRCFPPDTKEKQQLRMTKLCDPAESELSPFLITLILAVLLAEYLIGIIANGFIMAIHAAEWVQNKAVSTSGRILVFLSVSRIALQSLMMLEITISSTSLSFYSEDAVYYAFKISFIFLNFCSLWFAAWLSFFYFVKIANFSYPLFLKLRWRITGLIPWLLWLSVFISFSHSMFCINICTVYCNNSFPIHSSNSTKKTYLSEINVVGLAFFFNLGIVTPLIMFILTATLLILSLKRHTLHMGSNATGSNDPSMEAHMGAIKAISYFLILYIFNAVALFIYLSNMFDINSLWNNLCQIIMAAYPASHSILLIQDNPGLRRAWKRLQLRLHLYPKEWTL

[3] = molecular target: T2, TAS2R39; test: Response profile of TAS2Rs to target compounds: TAS2R39; assay type: cell-based; set-up: expressed in transfected cells; host or cells: HEK; settings: FIG. 4: Piperaquine 0.5 mM, Tenofovir (TAF) 1 mM, Dihydroartemisinin 2 mM (not fully dissolved)
Procedure: as §1, §2

[4] = molecular target: T3, TAS2R1 (Homo sapiens, UniProt Q9NYW7); test: Response profile of TAS2Rs to target compounds: TAS2R1; assay type: cell-based; settings: FIG. 4: Piperaquine 0.5 mM, Tenofovir (TAF) 1 mM
T3 sequence (Q9NYW7 1-299): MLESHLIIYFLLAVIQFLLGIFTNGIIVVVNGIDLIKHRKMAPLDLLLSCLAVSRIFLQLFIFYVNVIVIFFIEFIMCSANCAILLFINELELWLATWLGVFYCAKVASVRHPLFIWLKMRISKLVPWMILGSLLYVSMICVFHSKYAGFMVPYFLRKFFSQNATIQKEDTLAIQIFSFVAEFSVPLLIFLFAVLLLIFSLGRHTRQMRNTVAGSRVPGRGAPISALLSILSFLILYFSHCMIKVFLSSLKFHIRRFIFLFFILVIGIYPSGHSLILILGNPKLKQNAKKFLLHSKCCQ
Procedure: as §1, §2

[5] = system: human subjects; test: Human sensory testing (gLMS) of API bitterness with blocker, as pre-rinse or admixture; assay type: in vivo; settings: added as sensory excipients to APIs
Source text: Methods of evaluating the sensory properties of the API and admixtures with the blocker compounds of Formula A are adopted from Breslin PA, and Tharp CD, “Reduction of saltiness and bitterness after a chlorhexidine rinse,” Chem Senses. 2001 February; 26(2):105-16. More details are illustrated below.
Subjects participate in the study after providing informed consent. Gender of the subjects is balanced between male and female. The subjects are adults with ages ranging from 20 years old to 50 years old. […] The participants are asked to refrain from eating, drinking, or chewing gum for 1 hr prior to testing. Subjects are trained to use the General Labeled Magnitude Scale (gLMS) following standard published procedures. See. e.g., Breslin P A, and Tharp C D. “Reduction of saltiness and bitterness after a chlorhexidine rinse,” Chem Senses. 2001 February; 26(2): 105-16; Keast and Breslin, “Bitterness suppression with zinc sulfate and Na-cyclamate: a model of combined peripheral and central neural approaches to flavor modification.” Pharm Res. 2005 November; 22(11):1970-7. Epub 2005 Aug. 26; Green et al, “Evaluating the ‘Labeled Magnitude Scale’ for measuring sensations of taste and smell.” Chem Senses. 1996 June; 21(3):323-34; Barry G. Green, et al, “Derivation and evaluation of a semantic scale of oral sensation magnitude with apparent ratio properties,” Chemical Senses, Volume 18, Issue 6, 1 Dec. 1993, Pages 683-702; and Bartoshuk L M, “Comparing sensory experiences across individuals: recent psychophysical advances illuminate genetic variation in taste perception.” Chem Senses. 2000 August; 25(4):447-60.
The selected API (in racemic or L form as applicable) is diluted/dissolved in deionized (di) filtered water upon use into various concentrations. […] The API is prepared and dissolved in deionized filtered water or in […] 6-methylflavone to a final concentration. All solutions are stored on ice or at 4° C. to 8° C. and brought up to room temperature prior to testing.
The following testing protocol is performed. The tested solutions are provided to the subjects in random order. Subjects rinsed with di water at least four times over a 2-minute period prior to tasting each solution. The subjects are instructed to wear nose clips to eliminate olfactory input, pour the whole solution in their mouth for 3-5 seconds, and rate the perceived sensation (including bitterness, sourness, astringency, burning, stinging and nausea) intensity of the solution while it remained in the mouth, prior to expectorating. Taste intensity is recorded on a computerized gLMS, analyzed and plotted.

## O=C(C1CCCCC1)N1CC(=O)N2CCc3ccccc3C2C1 (racemic) [Praziquantel]
[1]
  Activation of TAS2R14: one of most responsive receptors

## COc1ccc2oc(-c3ccccc3)cc(=O)c2c1 [6-methoxyflavone]
[2]
  Inhibition of hTAS2R39 activation: unable to inhibit

## O=C(C1CCCCC1)N1CC(=O)N2CCc3ccccc3[C@@H]2C1 [L-praziquantel]
[1]
  Activation of TAS2R14: one of most responsive receptors

## Clc1ccc2c(N3CCN(CCCN4CCN(c5ccnc6cc(Cl)ccc56)CC4)CC3)ccnc2c1 [Piperaquine]
[3]
  Activation of TAS2R39: one of the most responsive receptors
[4]
  Activation of TAS2R1: responsive

## CC(C)c1nc(CN(C)C(=O)N[C@H](C(=O)N[C@@H](Cc2ccccc2)C[C@H](O)[C@H](Cc2ccccc2)NC(=O)OCc2cncs2)C(C)C)cs1 [Ritonavir]
[1]
  Activation of TAS2R14: one of most responsive receptors

## CC(C)OC(=O)[C@H](C)N[P@](=O)(CO[C@H](C)Cn1cnc2c(N)ncnc21)Oc1ccccc1 [TAF, tenofovir alafenamide fumarate]
[3]
  Activation of TAS2R39: one of the most responsive receptors
[4]
  Activation of TAS2R1: responsive

## sodium
[5]
  Reduction of API bitterness by sensory excipients: significantly reduce

## zinc
[5]
  Reduction of API bitterness by sensory excipients: significantly reduce
